Laboratory results published in patent publication US11597720B2, “Tetrahydronaphthalene and tetrahydroisoquinoline derivatives as estrogen receptor degraders” (Arvinas Operations, Inc., priority 2016, dated 2023).

Columns and labels:
[1] = target: T1, Estrogen receptor-alpha (ERα) (Homo sapiens, UniProt P03372); experiment: ERα degradation in MCF-7 cells, western blot; format: cell-based; parameters: assessed for their activity in degrading ERα in MCF-7 cells via western blot; endogenous in cells; host or cells: MCF7 cells; details: 10% FBS; for Degradation of ERα in MCF7 cells (immunoblot, FIG. 2): 7 concentrations 100 nM to 0.1 nM, 48 hours
T1 sequence (P03372 1-595): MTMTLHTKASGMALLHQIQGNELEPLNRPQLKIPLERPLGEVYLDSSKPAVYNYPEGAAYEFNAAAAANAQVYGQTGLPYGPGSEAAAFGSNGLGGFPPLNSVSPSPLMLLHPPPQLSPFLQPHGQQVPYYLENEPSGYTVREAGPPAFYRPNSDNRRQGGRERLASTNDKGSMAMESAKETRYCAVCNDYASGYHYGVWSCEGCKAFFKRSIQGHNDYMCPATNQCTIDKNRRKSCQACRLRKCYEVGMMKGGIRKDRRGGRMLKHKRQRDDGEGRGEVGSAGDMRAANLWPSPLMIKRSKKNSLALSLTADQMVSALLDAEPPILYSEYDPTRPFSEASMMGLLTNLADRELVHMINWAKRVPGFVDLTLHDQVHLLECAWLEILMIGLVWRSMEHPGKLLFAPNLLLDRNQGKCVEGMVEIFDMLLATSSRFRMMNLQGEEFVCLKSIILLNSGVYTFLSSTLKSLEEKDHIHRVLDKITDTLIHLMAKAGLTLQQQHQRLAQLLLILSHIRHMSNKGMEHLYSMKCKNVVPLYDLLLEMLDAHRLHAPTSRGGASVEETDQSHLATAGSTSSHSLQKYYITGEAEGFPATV
Procedure: FIG. 2 and FIG. 3 illustrate represent exemplary compounds from the western blot assay.
Estrogen receptor-alpha (ERα) degradation assay in MCF-7 cells using western blot method. The exemplary novel ERα degraders were assessed for their activity in degrading ERα in MCF-7 cells via western blot. The assay was carried out in the presence of 10% […] bovine serum (FBS) or high percentage of human or mouse serum.
MCF7 cells were grown in DMEM/F12 with 10% fetal bovine serum and seeded at 24,000 cells per well in 100 μl into 96-well clear tissue culture plates. The following day, the cells were treated with PROTACs in a 7-point concentration curve with 100 nM being the top concentration and serial dilutions to make the other concentrations (30 nM, 10 nM, 3 nM, 1 nM, and 0.3 nM). At all concentrations, 0.01% DMS is the final concentration in the well. […], washed with 50 μl of cold P1BS, The cells are lysed with 50 μl/well 4° (Cell Lysis Buffer (Catalog #9803; Cell Signaling Technology, Danvers, Mass.) (20 mM Tris-HCL (pH 7.5), 150 mM NaCl, 1 mM Na2EDTA, 1 mM EGTA, 1% Triton, 2.5 mM sodium pyrophosphate, 1 mM B-glycerophosphate, 1 mM sodium vanadate, 1 ug/ml leupeptin). Lysates were clarified at 16,000×g for 10 minutes, and 2 μg of protein was subjected to SDS-PAGE analysis and followed by immunoblotting according to standard protocols. The antibodies used were ERα (Cell Signaling Technologies Catalog #8644), and Tubulin (Sigma Catalog #T9026; St Louis, Mo.). Detection reagents were Clarity Western ECL substrate (Bio-Rad Catalog #170-5060; Hercules, Calif.).
Alternatively, MCF7 cells were grown in DMEM/F12 with 10% fetal bovine serum and seeded at 24,000 cells per well in 500 μl in 24-well clear tissue culture plates. The following day, the cells were treated with PROTACs in a 5-point concentration curve (100 nM, 33 nM, 11 nM, 3.7 nM, and 1.2 nM) in the presence of 0.01% DMSO, After 72 hours, the wells are aspirated and washed with 500 μl of PBS. The cells are lysed with 100 μl/well 4° C. […]

[2] = target: T1, Estrogen receptor-alpha (ERα); experiment: ERα degradation in T47D cells, western blot; format: cell-based; parameters: except that T47D cells were utilized instead of the MCF7 cells; endogenous in cells; host or cells: T47D cells; details: 7 concentrations 100 nM to 0.1 nM, 10% FBS, 72 hours
Procedure: Compounds prepared in this application were also analyzed for their ability to degrade ERα in MCF7 and T47D cells.
Estrogen receptor-alpha (ERα) degradation assay in T47D cells using western blot method. The same protocol that was described above with MCF7 cells was utilized, except that T47D cells were utilized instead of the MCF7 cells.

SMILES | Degradation of ERα in MCF7 cells (immunoblot, FIG. 3) ([1]; 5 concentrations 100 nM to 1.2 nM, 72 hours) | Degradation of ERα in MCF7 cells (immunoblot, FIG. 2) [1] | Degradation of ERα in T47D cells (immunoblot, FIG. 4) [2]
O=C1CCC(N2Cc3cc(N4CCN(CC5CCN(c6ccc([C@@H]7c8ccc(O)cc8CC[C@@H]7c7ccccc7)cc6)CC5)CC4)ccc3C2=O)C(=O)N1 (stereo partly drawn) [Example 341, 3-[5-[4-[[1-[4-[(1R, 2S)-6-hydroxy-2-phenyl-tetralin-1-yl]phenyl]-4-piperidyl]methyl]piperazin-1-yl]-1-oxo-isoindolin-2-yl]piperidine-2,6-dione] | Degradation of ERα | – | –
Cc1ncsc1-c1ccc(CNC(=O)[C@@H]2C[C@@H](O)CN2C(=O)[C@@H](NC(=O)COCCN2CCN(CCOc3ccc([C@@H]4c5ccc(O)cc5CC[C@@H]4c4ccccc4)cc3)CC2)C(C)(C)C)cc1 [Example 1, (2S,4R)-4-hydroxy-1-[(2S)-2-(2-{2-[4-(2-{4-[(1R,2S)-6-hydroxy-2-phenyl-1,2,3,4-tetrahydronaphthalen-1-yl]phenoxy}ethyl)piperazin-1-yl]ethoxy}acetamido)-3,3-dimethylbutanoyl]-N-{[4-(4-methyl-1,3-thiazol-5-yl)phenyl]methyl}pyrrolidine-2-carboxamide] | – | Degradation of ERα | Degradation of ERα
O=C1CCC(N2Cc3cc(N4CCN(CCCCCOc5ccc([C@@H]6c7ccc(O)cc7CC[C@@H]6c6ccccc6)cc5)CC4)ccc3C2=O)C(=O)N1 (stereo partly drawn) [Example 62, 3-{5-[4-(5-{4-[(1R,2S)-6-hydroxy-2-phenyl-1,2,3,4-tetrahydronaphthalen-1-yl]phenoxy}pentyl)piperazin-1-yl]-1-oxo-2,3-dihydro-1H-isoindol-2-yl}piperidine-2,6-dione] | – | Degradation of ERα | Degradation of ERα
